Target: T1, HEK cells stably transfected with tetracycline inducible hNR1 and hNR2A (Homo sapiens, UniProt Q05586+Q12879)
T1 construct: expressed in transfected cells; host or cells: HEK cells, stably transfected, tetracycline/doxycycline inducible
Test: Assay 1: Cell-Based Assay, cytosolic calcium response to positive allosteric modulators (with 30 μM glycine and 300 nM L-glutamate, EC30)
Settings: Table 2; for Max %: responses scaled relative to 100 μM L-glutamate maximal response (100%) and 0 μM L-glutamate (0%); for EC50: cytosolic calcium response, with 30 μM glycine and 300 nM L-glutamate (EC30), — = no plateau was reached
Summary of the method: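 Cells induced 24 h with 7.5 μg mL^−1 doxycycline plus 500 μM (+)-ketamine, loaded 60 min at 37 °C with calcium dye in Mg-free HBSS (1.8 mM Ca, probenecid, 10 μM (+)-ketamine, pH 7.15). Peak RFU over 5 min after compound addition, scaled to 100 μM L-glutamate (100%) and 0 μM (0%); four-parameter Hill fit for EC50, max % if no plateau.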

T1 sequence (Q12879 23-1464, other chains not shown): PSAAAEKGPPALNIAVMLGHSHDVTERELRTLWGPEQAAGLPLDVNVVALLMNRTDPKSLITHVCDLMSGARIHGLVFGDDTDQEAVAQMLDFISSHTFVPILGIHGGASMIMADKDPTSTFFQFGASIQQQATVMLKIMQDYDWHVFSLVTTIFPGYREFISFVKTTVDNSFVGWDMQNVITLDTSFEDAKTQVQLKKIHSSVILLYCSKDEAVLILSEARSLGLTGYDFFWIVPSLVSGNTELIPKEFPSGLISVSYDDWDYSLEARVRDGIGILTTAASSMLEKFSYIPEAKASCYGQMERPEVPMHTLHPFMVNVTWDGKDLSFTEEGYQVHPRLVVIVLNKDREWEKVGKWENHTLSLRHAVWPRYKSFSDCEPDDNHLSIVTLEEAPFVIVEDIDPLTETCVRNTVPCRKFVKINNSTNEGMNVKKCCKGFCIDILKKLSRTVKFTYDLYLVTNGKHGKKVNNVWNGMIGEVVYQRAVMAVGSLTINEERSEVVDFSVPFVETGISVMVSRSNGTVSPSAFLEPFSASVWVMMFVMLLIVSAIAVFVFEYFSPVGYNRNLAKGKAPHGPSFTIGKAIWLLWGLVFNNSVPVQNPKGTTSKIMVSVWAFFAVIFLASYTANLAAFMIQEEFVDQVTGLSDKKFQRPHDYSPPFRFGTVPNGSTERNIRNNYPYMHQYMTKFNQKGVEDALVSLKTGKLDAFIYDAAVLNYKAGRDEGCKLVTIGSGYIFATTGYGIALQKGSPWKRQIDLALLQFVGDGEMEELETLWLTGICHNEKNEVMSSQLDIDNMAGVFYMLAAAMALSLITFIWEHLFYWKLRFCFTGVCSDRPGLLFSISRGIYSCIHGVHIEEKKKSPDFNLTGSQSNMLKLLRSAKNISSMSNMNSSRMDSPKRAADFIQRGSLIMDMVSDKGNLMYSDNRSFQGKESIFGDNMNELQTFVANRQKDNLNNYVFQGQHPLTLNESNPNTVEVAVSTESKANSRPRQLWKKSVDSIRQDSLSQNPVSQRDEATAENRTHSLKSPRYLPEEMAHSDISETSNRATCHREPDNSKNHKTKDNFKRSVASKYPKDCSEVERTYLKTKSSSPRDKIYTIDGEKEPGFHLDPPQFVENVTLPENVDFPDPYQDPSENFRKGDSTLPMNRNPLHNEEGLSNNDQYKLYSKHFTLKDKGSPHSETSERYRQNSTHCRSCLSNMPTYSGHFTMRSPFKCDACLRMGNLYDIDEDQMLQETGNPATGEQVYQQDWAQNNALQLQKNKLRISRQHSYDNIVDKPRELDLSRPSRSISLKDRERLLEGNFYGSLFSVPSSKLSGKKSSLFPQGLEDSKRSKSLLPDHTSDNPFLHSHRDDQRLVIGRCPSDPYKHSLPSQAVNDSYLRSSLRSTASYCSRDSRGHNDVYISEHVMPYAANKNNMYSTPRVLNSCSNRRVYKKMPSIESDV

Row | Max % [%] | EC50 [µM] | Structure (SMILES)
1 | 106 |  | CCN(Cc1cc(=O)n2c(-c3cncnc3)c(C)sc2n1)c1ccccn1 [Example 5.12, 7-((ethyl(pyridine-2-yl)amino)methyl)-2-methyl-3-(pyrimidin-5-yl)-5H-thiazolo[3,2-a]pyrimidin-5-one]
2 | 87.9 |  | Cc1sc2nc(CNc3ccc(F)cc3)cc(=O)n2c1-c1cncnc1 [Example 5.13, 7-((4-fluorophenylamino)methyl)-2-methyl-3-(pyrimidin-5-yl)-5H-thiazolo[3,2-a]pyrimidin-5-one]
3 | 111 | 7.5 | CCCCc1c(C)sc2nc(CN(CC)c3ccc(F)cc3)cc(=O)n12 [Example 5.14, 3-butyl-7-((ethyl(4-fluorophenyl)amino)methyl)-2-methyl-5H-thiazolo[3,2-a]pyrimidin-5-one]
4 | 144 | 7 | CCN(Cc1cc(=O)n2c(-c3cncnc3)c(C3CC3)sc2n1)c1ccc(F)cc1 [Example 5.15, 2-cyclopropyl-7-[(N-ethyl-4-fluoro-anilino)methyl]-3-pyrimidin-5-yl-thiazolo[3,2-a]pyrimidin-5-one]
5 | 157 | 2.5 | CCc1sc2nc(CN(CC)c3ccc(F)cc3)cc(=O)n2c1-c1cncnc1 [Example 5.16, 2-ethyl-7-((ethyl(4-fluorophenyl)amino)methyl)-3-(pyrimidin-5-yl)-5H-thiazolo[3,2-a]pyrimidin-5-one]
6 | 157 | 0.815 | CCN(Cc1cc(=O)n2c(-c3cscn3)c(C)sc2n1)c1ccc(F)cc1 [Example 5.20, 7-[(N-ethyl-4-fluoro-anilino)methyl]-2-methyl-3-thiazol-4-yl-thiazolo[3,2-a]pyrimidin-5-one]
7 | 141 | 0.584 | CCN(Cc1cc(=O)n2c(-c3cccnc3)c(C)sc2n1)c1ccc(F)cc1 [Example 5.21, 7-[(N-ethyl-4-fluoro-anilino)methyl]-2-methyl-3-(3-pyridyl)thiazolo[3,2-a]pyrimidin-5-one]
8 | 142 | 1.6 | CCN(Cc1cc(=O)n2c(-c3ccccc3)c(C)sc2n1)c1ccc(F)cc1 [Example 5.22, 7-[(N-ethyl-4-fluoro-anilino)methyl]-2-methyl-3-phenyl-thiazolo[3,2-a]pyrimidin-5-one]
9 | 135 | 2.6 | CCN(Cc1cc(=O)n2c(C)c(C)sc2n1)c1ccc(F)cc1 [Example 5.23, 7-[(N-ethyl-4-fluoro-anilino)methyl]-2,3-dimethyl-thiazolo[3,2-a]pyrimidin-5-one]
10 | 142 | 0.731 | CCN(Cc1cc(=O)n2c(-c3cncc(F)c3)c(C)sc2n1)c1ccc(F)cc1 [Example 5.24, 7-[(N-ethyl-4-fluoro-anilino)methyl]-3-(5-fluoro-3-pyridyl)-2-methyl-thiazolo[3,2-a]pyrimidin-5-one]
11 | 141 | 0.7 | CCN(Cc1cc(=O)n2c(-c3cccnc3F)c(C)sc2n1)c1ccc(F)cc1 [Example 5.25, 7-[(N-ethyl-4-fluoro-anilino)methyl]-3-(2-fluoro-3-pyridyl)-2-methyl-thiazolo[3,2-a]pyrimidin-5-one]
12 | 149 | 0.563 | CCN(Cc1cc(=O)n2c(C3CC3)c(C)sc2n1)c1ccc(F)cc1 [Example 5.26, 3-cyclopropyl-7-[(N-ethyl-fluoro-anilino)methyl]-2-methyl-thiazolo[3,2-a]pyrimidin-5-one]
13 | 139 | 1.1 | CCN(Cc1cc(=O)n2c(-c3cnccn3)c(C)sc2n1)c1ccc(F)cc1 [Example 5.27, 7-[(N-ethyl-4-fluoro-anilino)methyl]-2-methyl-3-pyrazin-2-yl-thiazolo[3,2-a]pyrimidin-5-one]
14 | 147 | 0.445 | C=C(C)c1c(C)sc2nc(CN(CC)c3ccc(F)cc3)cc(=O)n12 [Example 5.29, 7-[(N-ethyl-4-fluoro-anilino)methyl]-3-isopropenyl-2-methyl-thiazolo[3,2-a]pyrimidin-5-one]
15 | 132 | 4.3 | CCN(Cc1cc(=O)n2c(-c3ccnnc3)c(C)sc2n1)c1ccc(F)cc1 [Example 5.30, 7-[(N-ethyl-4-fluoro-anilino)methyl]-2-methyl-3-pyridazin-4-yl-thiazolo[3,2-a]pyrimidin-5-one]
16 | 132 | 2.7 | CCN(Cc1cc(=O)n2c(-c3cncc(Cl)c3)c(C)sc2n1)c1ccc(F)cc1 [Example 5.31, 3-(5-chloro-3-pyridyl)-7-[(N-ethyl-4-fluoro-anilino)methyl]-2-methyl-thiazolo[3,2-a]pyrimidin-5-one]
17 | 123 | 4.3 | CCN(Cc1cc(=O)n2c(-c3ccncc3)c(C)sc2n1)c1ccc(F)cc1 [Example 5.32, 7-[(N-ethyl-4-fluoro-anilino)methyl]-2-methyl-3-(4-pyridyl)thiazolo[3,2-a]pyrimidin-5-one]
18 | 120 | 4.2 | CCN(Cc1cc(=O)n2c(-c3cnn(C)c3)c(C)sc2n1)c1ccc(F)cc1 [Example 5.33, 7-[(N-ethyl-4-fluoro-anilino)methyl]-2-methyl-3-(1-methylpyrazol-4-yl)thiazolo[3,2-a]pyrimidin-5-one]
19 | 118 | 2.8 | CCN(Cc1cc(=O)n2c(-c3cn[nH]c3)c(C)sc2n1)c1ccc(F)cc1 [Example 5.34, 7-[(N-ethyl-4-fluoro-anilino)methyl]-2-methyl-3-(1H-pyrazol-4-yl)thiazolo[3,2-a]pyrimidin-5-one]
20 | 136 | 2.7 | CCN(Cc1cc(=O)n2c(-c3cncc(C#N)c3)c(C)sc2n1)c1ccc(F)cc1 [Example 5.35, 5-[7-[(N-ethyl-4-fluoro-anilino)methyl]-2-methyl-5-oxo-thiazolo[3,2-a]pyrimidin-3-yl]pyridine-3-carbonitrile]
21 | 61.3 |  | CCN(Cc1cc(=O)n2c(-c3cncc(C(F)(F)F)c3)c(C)sc2n1)c1ccc(F)cc1 [Example 5.36, 7-[(N-ethyl-4-fluoro-anilino)methyl]-2-methyl-3-[5-(trifluoromethyl)-3-pyridyl]thiazolo[3,2-a]pyrimidin-5-one]
22 | 152 | 0.515 | CCN(Cc1cc(=O)n2c(-c3ncco3)c(C)sc2n1)c1ccc(F)cc1 [Example 5.37, 7-[(N-ethyl-4-fluoro-anilino)methyl]-2-methyl-3-oxazol-2-yl-thiazolo[3,2-a]pyrimidin-5-one]
23 | 147 | 1.1 | CCN(Cc1cc(=O)n2c(C(F)(F)F)c(C)sc2n1)c1ccc(F)cc1 [Example 5.38, 7-((ethyl(4-fluorophenyl)amino)methyl)-2-methyl-3-(trifluoromethyl)-5H-thiazolo[3,2-a]pyrimidin-5-one]
24 | 149 | 1.9 | CCc1c(C)sc2nc(CN(CC)c3ccc(F)cc3)cc(=O)n12 [Example 5.40, 3-ethyl-7-((ethyl(4-fluorophenyl)amino)methyl)-2-methyl-5H-thiazolo[3,2-a]pyrimidin-5-one]
25 | 125 | 2 | CCCc1c(C)sc2nc(CN(CC)c3ccc(F)cc3)cc(=O)n12 [Example 5.41, 7-((ethyl(4-fluorophenyl)amino)methyl)-2-methyl-3-propyl-5H-thiazolo[3,2-a]pyrimidin-5-one]

From US9988400B2 (Genentech, Inc., priority 2013, dated 2018)
